Experiments:
[1] = biological target: T1, Peroxisome proliferator-activated receptor gamma (Homo sapiens) (UniProt P37231); experiment: Agonist activity at human PPARgamma expressed in mouse NIH/3T3 cells assessed as receptor activation at 100 uM after 16 hrs by luciferase based reporter gene assay relative to control; format: functional, cell-based; details: NIH3T3
T1 sequence (whole entry): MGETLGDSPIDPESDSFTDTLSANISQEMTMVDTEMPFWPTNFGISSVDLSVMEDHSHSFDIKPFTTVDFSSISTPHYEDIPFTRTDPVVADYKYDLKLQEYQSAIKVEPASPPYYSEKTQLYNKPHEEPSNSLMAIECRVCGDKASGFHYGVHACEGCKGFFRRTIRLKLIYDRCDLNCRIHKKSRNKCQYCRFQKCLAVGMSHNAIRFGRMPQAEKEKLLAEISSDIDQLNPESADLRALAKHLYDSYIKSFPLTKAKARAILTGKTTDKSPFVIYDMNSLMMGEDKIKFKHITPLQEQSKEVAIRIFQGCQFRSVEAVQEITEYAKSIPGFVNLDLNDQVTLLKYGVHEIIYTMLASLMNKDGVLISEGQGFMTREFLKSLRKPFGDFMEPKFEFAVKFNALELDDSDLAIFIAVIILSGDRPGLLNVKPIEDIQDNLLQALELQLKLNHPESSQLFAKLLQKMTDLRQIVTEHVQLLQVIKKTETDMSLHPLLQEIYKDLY

[2] = biological target: T2, Peroxisome proliferator-activated receptor gamma (Homo sapiens, UniProt P37231); experiment: Agonist activity at human PPARgamma expressed in mouse NIH/3T3 cells assessed as receptor activation after 16 hrs by luciferase based reporter gene assay; format: functional, cell-based, NIH3T3
T2 sequence (P37231 whole entry): T1 sequence (whole entry)

| Compound | fold change (FC) [1] | EC50 [2] [µM] |
| --- | --- | --- |
| CC1(COc2ccc(CC3SC(=O)NC3=O)cc2)CCCCC1 (centres undefined) | 15 | – |
| C/C(=C/CC/C(C)=C/CC/C(C)=C/Cc1occc1C)C(=O)O [SAURUFURAN A] | 13.5 | 16.7 |
| C/C(=C\CC/C(C)=C/Cc1occc1C)CC/C=C(\C)C(=O)O [SAURUFURAN B] | – | > 100 |

Source: ChEMBL document CHEMBL1156402, “Two new furanoditerpenes from Saururus chinenesis and their effects on the activation of peroxisome proliferator-activated receptor gamma” (J Nat Prod, 2002)
